Experimental data: patent US6835722B1, “Pharmaceutical compositions and preparations for treatment of metabolic bone disease” (Yuyu Industrial Co., Ltd., priority 1999, dated 2004)

How the values were obtained:
[1] = system: female Sprague-Dawley white rats; assay: Bone remodeling index: serum osteocalcin and alkaline phosphatase; assay type: in vivo; settings: single treatment (calcitriol 0.1 μg/kg or alendronate 1.0 mg/kg), 2 months; for concentration of serum osteocalcin: FIG. 5; for activity of alkaline phosphatase: FIG. 6
Description: (§1) Twelve week old matured female Sprague-Dawley white rats were supplied from Daehan Biolink Co., Ltd. (Seoul, Korea) and raised in a dean room of an animal experiment laboratory in a medical school of Seoul National University. The white rats were given a week to adapt by feeding them with normal feedstuff (Purina, chow diet) and then they were divided into 6 different groups wherein each group consisted of 10 white rats with similar weight distribution, and ovariostereses were performed to all of them. The white rats were allowed to freely drink water and have food under a standardized condition of 22° C., 50% humidity, 12 h dark/light cycle.
(§2) The amount of medication administered in each group is shown in the following table 1 and the control group was administered only with equal amount of palm oil and physiological saline used in the experimental groups.
(§3) After 2 months of the onset of the above medications, 24 h urine samples were collected from the white rats by using a metabolic cage, centrifuged and then stored at −70° C. The white rats under experiment were fasted overnight decapitated, and their blood samples were collected. White rats sera were then obtained by centrifuging those blood samples and were stored at −70° C. Tibiae were separated by ablation and fixed with 4% formalin at pH 7.4.
The activity level of serum alkaline phosphatase was measured by using Technicon autoanalyzer and the concentration of osteocalcin was measured by using a kit (OSCA test, Brahams, Berlin, Germany) which uses RIA method.

[2] = system: female Sprague-Dawley white rats; assay: Bone histomorphometry: area of trabecular bone of tibia after ovariosteresis; assay type: in vivo; settings: single treatment (calcitriol 0.1 μg/kg or alendronate 1.0 mg/kg), oral 5 days/week for 2 months after ovariosteresis; image analyzer, FIG. 2
Description: as §1, §2, §3

post-menopausal women = settings: clinical study; cited from earlier work
[3] = system: female Sprague-Dawley white rats; assay: Measurement of serum calcium concentration (Technicon autoanalyzer); settings: single treatment (calcitriol 0.1 μg/kg or alendronate 1.0 mg/kg), 2 months, FIG. 3
Description: as §1, §2, §3

[4] = system: female Sprague-Dawley white rats; assay: Measurement of calcium excretion in urine (calcium/creatine of 24 h urine); assay type: in vivo; settings: single treatment (calcitriol 0.1 μg/kg or alendronate 1.0 mg/kg), 2 months, FIG. 4
Description: as §1, §2, §3

Structure (SMILES) | concentration of serum osteocalcin [1] | activity of alkaline phosphatase [1] | area of trabecular bone [2] | reduction of rate of occurrence of new spinal fracture compared to placebo group (post-menopausal women) | serum calcium concentration [3] | calcium excretion in urine (calcium/creatine, 24 h urine) [4]
NCCCC(O)(P(=O)(O)O)P(=O)(O)O [alendronate, 4-amino-hydroxybutylidine-1,1-bisphosphonate] | decreased | decreased | drastically increased | about 48% | – | –
C=C1/C(=C\C=C2/CCC[C@]3(C)[C@@H]([C@H](C)CCCC(C)(C)O)CC[C@@H]23)C[C@@H](O)C[C@@H]1O [calcitriol] | slight increase | slight increase | not increased | – | significant increase | increased markedly
